# According to patent publication US20220313728A1 (priority 2021, published 2022):
# Entries after “also recorded” stand apart in the source; their conditions may differ.
# Assays:
# [1] = test system: adult and geriatric patients, milder depression; test: Gibbons et al. 2012 synthesis of 37 placebo controlled double-blind randomized trials, HDRS-17 outcome; type: in vivo, human; conditions: 6 weeks; converted from HDRS-17 with the 24% increased range of the 21 item scale; pooled fluoxetine and venlafaxine
# [2] = test system: adult and geriatric patients, milder depression; conditions: 6 weeks; pooled data of 37 trials of fluoxetine and venlafaxine; cited from earlier work
# [3] = test system: patients with severe TRMD; test: Phase 2 double-blind randomized placebo-controlled crossover trial, single 1-hour inhalation; Hamilton Depression Rating Scale (HDRS-21, primary outcome); type: in vivo, human; conditions: for Estimated difference between 25% and placebo (HDRS-21) / Estimated difference between 50% and placebo (HDRS-21): single 1-hour inhalation; for Difference vs placebo (HDRS-21): 2 weeks, following a single treatment; for Estimated difference between 50% and 25% (HDRS-21): 50% vs 25% nitrous oxide; for Patients in remission (HDRS ≤7 points) / Patients with treatment response (reduction in HDRS-21 points ≥50%): pre-treatment HDRS-21 >19; for Estimated difference between placebo and the combined 25% and 50% groups (HDRS-21): combined 25% and 50% nitrous oxide
# Description: (§1) The study was a single-center, double-blind, randomized placebo-controlled crossover trial. All subjects underwent three one-hour inhalation sessions in random order, each separated by at least 4 weeks. The sessions included: placebo (0% N20), 25% N20, and 50% N20 balanced with air/oxygen. Blinding was executed by separating locations and teams for inhalation treatments and psychiatric evaluations. Only the anesthesia team administering the inhalation treatments was aware of study group assignment; all other participants, including patients and raters, were blinded. Likewise, the study setup was identical for all sessions, and gas flow meters were concealed, making inadvertent unblinding unlikely. The study was approved by the Washington University in St. Louis Institutional Review Board, and all patients provided written, informed consent. The trial was registered at clinicaltrials.gov (NCT03283670).
# Patients were recruited from an existing database of TRMD patients identified through participation in a secondary referral clinic for TRMD at Washington University Department of Psychiatry, as well as from the “Volunteers for Health” patient pool (individuals with various medical/psychiatric conditions who volunteer to participate in clinical research) within Washington University School of Medicine. […] Patients were instructed to continue their current standard of care MDD treatment and to maintain a stable psychotropic medication dosage or psychotherapy regimen for 4 weeks prior to initiation of the study and throughout the study. Further, patients were instructed not to modify their antidepressant treatments during the three month course of the trial (i.e., discouraged from adding new antidepressants or modifying existing antidepressant dosages).
# Following the in-person screen, each of the three treatment sessions consisted of […]: pre-inhalation mood assessment, inhalation, and post-inhalation follow-up sessions at 22-28 hours, 1 week, and 2 weeks. An additional assessment was completed 4 weeks following the final inhalation treatment.
# (§2) All three inhalation sessions were scheduled for one hour. […] Except for the choice of inhalational gas admixture, treatment sessions were otherwise identical. The gas mix was administered via a standard anesthesia facemask through tubing connected to the anesthesia machine or an FDA-approved Porter/Praxair MXR breathing circuit. A small sample connector line was inserted into the facemask allowing the measurement of inhaled and exhaled gas concentrations. […] Patients were monitored during and after the treatment according to American Society of Anesthesiologists standards which include continuous 3-lead ECG, pulse oximetry, non-invasive blood pressure, and end tidal CO2 measurement under the supervision of an attending-level anesthesiologist. After the one-hour treatment session, patients were monitored in a recovery room for up to one hour at which time a study team physician determined whether the patient met criteria for discharge.
# (§3) Data were collected at (a) baseline (prior to each inhalation session), (b) 2-hours, (c) 24 hours, (d) 1 week, and (e) 2 weeks after inhalation. Efficacy of the inhalation treatment on mood was measured using the following: Hamilton Depression Rating Scale 21-item (HDRS-21; primary outcome); Montgomery-Asberg Depression Rating Scale (MADRS); Quick Inventory of Depressive Symptomology-Self Report (QIDS-SR); and the Profile of Mood States 2nd Edition (POMS-2). Other behavioral assessments included an assessment of dissociation, the Clinical Administered Dissociative States Scale 28-item (CADSS-28); and an assessment for the emergence of psychosis, the Brief Psychiatric Rating Scale 18-item (BPRS-18). These mood and behavioral assessments were performed by a blinded member of the psychiatry study team. Additionally, adequacy of the blind was assessed by a Blinding Questionnaire given after completion of each inhalation session.
# [4] = test system: patients with severe TRMD; test: Same trial; Montgomery-Asberg Depression Rating Scale (MADRS); type: in vivo, human; conditions: 25% nitrous oxide
# Description: (§4) The trial was registered at clinicaltrials.gov (NCT03283670).
# (§5) Patients were recruited from an existing database of TRMD patients identified through participation in a secondary referral clinic for TRMD at Washington University Department of Psychiatry, as well as from the “Volunteers for Health” patient pool (individuals with various medical/psychiatric conditions who volunteer to participate in clinical research) within Washington University School of Medicine. Inclusion criteria were a) adults 18-75 years of age; b) current diagnosis of unipolar major depressive disorder (MDD) without psychosis as confirmed by the Mini International Neuropsychiatric Interview; c) a score of ≥19 on the Montgomery-Asberg Depression Rating Scale (MADRS); d) documented lifetime failure to respond to ≥3 adequate dose/duration antidepressant treatment trials, including ≥1 antidepressant medication failure(s) in the current depressive episode; and e) good command of the English language. […] Patients were instructed to continue their current standard of care MDD treatment and to maintain a stable psychotropic medication dosage or psychotherapy regimen for 4 weeks prior to initiation of the study and throughout the study. […]
# [5] = test system: patients with severe TRMD; test: Same trial; Quick Inventory of Depressive Symptomology-Self Report (QIDS-SR); type: in vivo, human
# Description: as §4, §5
# [6] = test system: patients with severe TRMD; test: Same trial; Profile of Mood States 2nd Edition (POMS-2); type: in vivo, human
# Description: as §4, §5
# [7] = test system: patients with severe TRMD; test: Same trial; treatment safety, monitoring of adverse events; conditions: for Stomach virus: >24 hours after inhalation session, count (%)
# Description: as §1, §2
# as §3, with “session. Treatment safety was assessed by monitoring adverse events (AEs) related to (a) cardiovascular status; (b) respiratory function; (c) central nervous system; and (d) psychiatric symptoms, particularly the presence of psychotic symptoms.” for “session.”
# Finally, we also tested for a linear dose-response relation. Differences between categorical outcomes (response, remission) were tested by Fisher-Exact test; relative risk and 95% confidence intervals were calculated using the Koopman asymptotic score. Differences in the count of adverse events were compared by the Kruskal-Wallis test. All reported p-values are two-sided and a p-value of <0.05 was considered statistically significant. All analyses were conducted using SuperMix (Scientific Software International, Lincolnwood Ill.).
# patients with TRMD = conditions: 50% nitrous oxide, one one-hour inhalation; cited from earlier work
# [8] = test system: Major Depressive Disorder; conditions: 50% nitrous oxide; cited from earlier work
# bothersome tinnitus = conditions: similar clinical trial; 85% of patients correctly guessed the treatment arm; cited from earlier work
# [9] = after 50% nitrous oxide, 5/12 patients
compound,measurement,setting,value
CNCCC(Oc1ccc(C(F)(F)F)cc1)c1ccccc1 (centres unmarked) [fluoxetine],Equivalent difference on the HDRS-21,[1],−3.16 unit
same,Estimated separation between active treatment and placebo control (HDRS-17),[2],−2.55 HDRS-17 units
[N-]=[N+]=O [nitrous oxide],Estimated difference between 25% and placebo (HDRS-21),"[3]; 25% nitrous oxide, 2 hours",−0.75 points
same,Estimated difference between 25% and placebo (HDRS-21),"[3]; 25% nitrous oxide, 24 hours",−1.41 points
same,Estimated difference between 25% and placebo (HDRS-21),"[3]; 25% nitrous oxide, week 1",−4.35 points
same,Estimated difference between 25% and placebo (HDRS-21),"[3]; 25% nitrous oxide, week 2",−5.19 points
same,Difference vs placebo (HDRS-21),[3]; 25% nitrous oxide,−5.19 units
same,"Effect size d, 25% vs placebo (HDRS-21)","[3]; 25% nitrous oxide, 2 hours",0.16
same,"Effect size d, 25% vs placebo (HDRS-21)","[3]; 25% nitrous oxide, 24 hours",0.21
same,"Effect size d, 25% vs placebo (HDRS-21)","[3]; 25% nitrous oxide, week 1",0.38
same,"Effect size d, 25% vs placebo (HDRS-21)","[3]; 25% nitrous oxide, week 2",0.62
same,Estimated difference between 50% and placebo (HDRS-21),"[3]; 50% nitrous oxide, 2 hours",−0.87 points
same,Estimated difference between 50% and placebo (HDRS-21),"[3]; 50% nitrous oxide, 24 hours",−1.93 points
same,Estimated difference between 50% and placebo (HDRS-21),"[3]; 50% nitrous oxide, week 1",−2.44 points
same,Estimated difference between 50% and placebo (HDRS-21),"[3]; 50% nitrous oxide, week 2",−7.00 points
same,Difference vs placebo (HDRS-21),[3]; 50% nitrous oxide,−7.00 HDRS-21 units
same,"Effect size d, 50% vs placebo (HDRS-21)","[3]; 50% nitrous oxide, 2 hours",0.29
same,"Effect size d, 50% vs placebo (HDRS-21)","[3]; 50% nitrous oxide, 24 hours",0.32
same,"Effect size d, 50% vs placebo (HDRS-21)","[3]; 50% nitrous oxide, week 1",0.35
same,"Effect size d, 50% vs placebo (HDRS-21)","[3]; 50% nitrous oxide, week 2",0.85
same,Estimated difference between 50% and 25% (HDRS-21),[3]; 2 hours,0.11 points
same,Estimated difference between 50% and 25% (HDRS-21),[3]; 24 hours,0.42 points
same,Estimated difference between 50% and 25% (HDRS-21),[3]; week 1,1.91 points
same,Estimated difference between 50% and 25% (HDRS-21),[3]; week 2,−1.67 points
same,Patients in remission (HDRS ≤7 points),"[3]; after 25% nitrous oxide, 2/9 patients",22.2%
same,Patients with treatment response (reduction in HDRS-21 points ≥50%),"[3]; after 25% nitrous oxide, 3/9 patients",33.3%
same,Patients in remission (HDRS ≤7 points),[3]; [9],41.7%
same,Patients with treatment response (reduction in HDRS-21 points ≥50%),[3]; [9],41.7%
same,Estimated difference between placebo and the combined 25% and 50% groups (HDRS-21),[3]; 2 hours,−0.81 points
same,Estimated difference between placebo and the combined 25% and 50% groups (HDRS-21),[3]; 24 hours,−1.67 points
same,Estimated difference between placebo and the combined 25% and 50% groups (HDRS-21),[3]; week 1,−3.35 points
same,Estimated difference between placebo and the combined 25% and 50% groups (HDRS-21),[3]; week 2,−6.13 points
same,Median HDRS-21 score at study completion,"[3]; entire 3-month course (25%, 50% nitrous oxide and placebo sessions), completers n=20, baseline median 20.5",8.5 (IQR 2.0-16.0)
same,Median change in HDRS-21 from baseline to study completion,"[3]; entire 3-month course (25%, 50% nitrous oxide and placebo sessions), n=20, IQR −3.3 to −14.0",−11.0 points
same,Patients in remission at study completion (HRDS≤7 points),"[3]; entire 3-month course, n=20, 8/20",40%
same,Patients with treatment response at study completion (reduction in HRDS-21 points ≥50%),"[3]; entire 3-month course, n=20, 11/20",55%
same,Patients with improvement in depressive symptoms by at least one category at study completion,"[3]; entire 3-month course, n=20, 17/20",85%
same,Median reduction of HDRS-21,[3]; entire 3-month treatment regimen with 2 treatments with nitrous oxide,11 HDRS-21 points
same,Dose-response relation (HDRS-21 decrease),[3]; week 2,−3.51 per 25% increase in dose
same,MADRS efficacy,[4],not significant
same,Results on the QIDS scale,[5]; 25% nitrous oxide,non-significant; also recorded: not statistically significant
same,Results on the QIDS scale,"[5]; 50% nitrous oxide, except at 2 weeks",not statistically significant
same,Results on the POMS scale,[6]; 25% nitrous oxide,non-significant
same,Results on the POMS scale,[6]; 50% nitrous oxide,significant at 2 weeks
same,Stomach virus,[7]; 25% N2O (n = 20),0
same,Stomach virus,[7]; 50% N2O (n = 23),0
same,Car Crash (minor),"[7]; human, in vivo",1 (4%)
same,Fainting Spell,"[7]; human, in vivo",1 (4%)
same,Haziness,"[7]; human, in vivo",3 (13%)
same,Haziness,"[7]; human, in vivo, 1 h",1(5%)
same,Serious adverse events,[7]; in vivo,None
same,Effect on depressive symptoms in patients with TRMD (earlier study),patients with TRMD,improved depressive symptoms; also recorded: rapid antidepressant effects
same,Persistence of efficacy after a single inhalation (case report),[8],beyond one month
same,Treatment effect for bothersome tinnitus,bothersome tinnitus,did not observe a treatment effect
COc1ccc(C(CN(C)C)C2(O)CCCCC2)cc1 (centres unmarked) [venlafaxine],Equivalent difference on the HDRS-21,[1],−3.16 unit
same,Estimated separation between active treatment and placebo control (HDRS-17),[2],−2.55 HDRS-17 units
